# Measurements reported in the Bradley open melting point set (2014).
row,SMILES,melting point [°C]
1,COC1(CBr)OC(COC(=O)c2ccc(C)cc2)C(OC(=O)c2ccc(C)cc2)C1OC(=O)c1ccc(C)cc1 (stereo unspecified),149
2,CN1C(=O)C(=NNc2c(Br)cc(Br)cc2Br)C(=O)N(C)C1=O,166
3,Cc1c(C2(c3cc(Br)c(O)c(Br)c3C)OS(=O)(=O)c3ccccc32)cc(Br)c(O)c1Br,225
4,CCOC(=O)[C@@H]1CC[C@H](C(C)=O)[C@@H]1NC(=O)OC(C)(C)C,110
5,CCCCCCCCOc1cc(N(NC(=O)OC(C)(C)C)C(=O)OC(C)(C)C)cc(OCCCCCCCC)c1OCCCCCCCC,73.5
6,CCCCCCCCCCOc1cc(N(NC(=O)OC(C)(C)C)C(=O)OC(C)(C)C)cc(OCCCCCCCCCC)c1OCCCCCCCCCC,56
7,CCCCCCCCSc1cc(N(NC(=O)OC(C)(C)C)C(=O)OC(C)(C)C)cc(SCCCCCCCC)c1SCCCCCCCC,51.5
8,CCCCCCCCCCSc1cc(N(NC(=O)OC(C)(C)C)C(=O)OC(C)(C)C)cc(SCCCCCCCCCC)c1SCCCCCCCCCC,50.5
9,CCCCCCCCCCCCSc1cc(N(NC(=O)OC(C)(C)C)C(=O)OC(C)(C)C)cc(SCCCCCCCCCCCC)c1SCCCCCCCCCCCC,50
10,CCCCCCCCOc1ccc(N(NC(=O)OC(C)(C)C)C(=O)OC(C)(C)C)cc1OCCCCCCCC,56
11,CC(C)CC1=C/C(=C/c2ccc(-c3ccc(Br)cc3)o2)C(=O)O1,108
12,CC1(C)C(O)[C@H](Cl)[C@@H]2CC[C@H]1O2 (stereo partly specified),72
13,CC12CCC(/C(=C/N(Cl)c3ccccc3)C1=O)C2(C)C (stereo unspecified),103
14,CC1=NN(c2ccccc2)C(=O)/C1=C/c1ccccc1O,154
15,CC1(C)CC(=O)c2c(cc3c(c2[Si](C)(C)C)-c2ccccc2OC3)C1,143
16,CC1(C)CC(=O)c2c(cc3c(c2-c2ccccc2)-c2ccccc2OC3)C1,191
17,CCOC(=O)/C(C#N)=C/c1ccc(-c2ccccc2Br)o1,124
18,CN(C)CCOc1ccc(/C(=C(\CCCl)c2ccccc2)c2ccccc2)cc1,108
19,CC[C@H]1OC(=O)[C@H](C)[C@@H](O[C@H]2C[C@@](C)(OC)[C@@H](O)[C@H](C)O2)[C@H](C)[C@@H](O[C@@H]2O[C@H](C)C[C@H](N(C)C)[C@H]2O)[C@](C)(O)C[C@@H](C)CN(C)[C@H](C)[C@@H](O)[C@]1(C)O,114
20,COC(=O)/C=C(/C(=O)OC)N(Nc1ccccc1N=Nc1ccccc1)c1ccccc1,154
21,COC1=C(OC)C(=O)C(C/C=C(\C)CC/C=C(\C)CC/C=C(\C)CC/C=C(\C)CC/C=C(\C)CC/C=C(\C)CC/C=C(\C)CC/C=C(\C)CC/C=C(\C)CCC=C(C)C)=C(C)C1=O,49
22,CON(/C=C1\C(=O)C2(C)CCC1C2(C)C)c1ccccc1 (stereo unspecified),76
23,COc1ccc(/N=N/c2c(N)nn3c(C(F)(F)F)cc(C)nc23)cc1,159
24,COc1ccc(C(=O)/C=C/c2ccc(-c3ccccc3OC)o2)cc1OC,145

row,SMILES,melting point [°C]
1,COc1ccc(C(=O)/C=C/c2ccc(-c3ccccc3[N+](=O)[O-])o2)cc1OC,120
2,COc1ccc(N/N=C(\C#N)c2nc(-c3ccc(C)cc3)cs2)cc1,146
3,COc1ccccc1-c1ccc(/C=C/C(=O)c2ccccc2)o1,99
4,COc1ccccc1/C=C(/C#N)c1nc2ccccc2s1,159
5,COc1ccccc1N/N=C1\C(=O)N(CN2CCCCC2)N=C1C,149
6,C[C@]12C/C(=C/O)C(=O)C[C@@H]1CC[C@@H]1[C@@H]2CC[C@@]2(C)[C@H]1CC[C@]2(C)O,179
7,Cc1ccc(-c2csc(/C(C#N)=N/Nc3cccc(C)c3)n2)cc1,133
8,Cc1ccc(/C=C(\Oc2ccccc2)c2nc3ccccc3s2)cc1,163
9,Cc1ccc(C(=O)/C=C/c2ccc(-c3ccccc3)o2)o1,123
10,ClC1=C(Cl)[C@]2(Cl)C3C(Cl)C=CC3[C@@]1(Cl)C2(Cl)Cl (stereo partly specified),95.5
11,O=C1CCCc2cc3c(c(-c4ccccc4)c21)-c1cc(Cl)ccc1OC3,185
12,ClC1=C(Cl)[C@]2(Cl)[C@H]3[C@H]([C@@H]4C=C[C@H]3C4)[C@@]1(Cl)C2(Cl)Cl,104
13,COc1ccccc1NC(=O)c1cnc(C(C)(C)C)c(Cl)n1,119
14,CC(=O)C=Cc1oc2ccc(Cl)cc2c1-c1ccc(C)o1,119
15,N=C(NCCCCCCNC(=N)NC(=N)Nc1ccc(Cl)cc1)NC(=N)Nc1ccc(Cl)cc1,134
16,Cn1c(/C(C#N)=N/Nc2cccc(Cl)c2)nc2ccccc21,166
17,CCC(C)NC(=O)C(C(F)(F)F)C(F)(F)F (stereo unspecified),112
18,N#C/C(=N/Nc1cc(Cl)ccc1Cl)c1nc(-c2ccccc2)cs1,134
19,NC(=O)/C(=N\Nc1ccc(F)cc1)c1nc2ccccc2s1,159
20,NC(=O)/C(=N\Nc1ccc(O)cc1)c1nc2ccccc2s1,161
21,NCCNCCNCCNCCN,-40
22,COc1ccc(N=C(CNc2ccc(OC)cc2)Nc2ccc(OC)cc2)cc1,159
23,O/N=C/C1=C(/C=C/c2ccccc2)CCC1,163
24,C=C1N(C(C)=O)c2ccccc2C1(C)C(=O)OC (stereo unspecified),60

row,SMILES,melting point [°C]
1,CC(=O)NC1C2CCC(C)(C1NC(C)=O)C2(C)C (stereo unspecified),250
2,CC(=O)CCc1oc2ccc(NC(C)=O)cc2c1-c1ccc(C)o1,132
3,CC1(C)OC(C)(C(O)(Cc2ccccc2)Cc2ccccc2)CCC1C(=O)O (stereo unspecified),138
4,CC1(CO)NC(C(=O)O)CC2c3ccccc3NC21 (stereo unspecified),260
5,O=C(O)COCCNC(=O)C12CC3CC(CC(C3)C1)C2,122
6,O=C(O)[C@@H]1C[C@@H]2C[C@H]1[C@@H](O)C2,161
7,COC(=O)[C@]1(C(=O)O)[C@@H]2CCC[C@@H]21,137
8,O=C(O)c1ccccc1-c1c2cc(Br)c(=O)c(Br)c-2oc2c(Br)c(O)c(Br)cc12,300
9,COC(=O)CC(C)CCC1C(C)(O)CCC2C(C)(C)CCCC21C (stereo unspecified),70
10,COC(=O)c1cc(C)n(CN(Cn2nc(C(=O)OC)cc2C)c2ccccc2)n1,125
11,COC(=O)c1ccc2c(c1)CC1(CCC(c3ccc(C(C)(C)C)cc3)CC1)C2 (stereo unspecified),117
12,CC(=O)OC1CCC2(C)C(C1)CC1(OCCO1)C1C2CCC2(C)C1CCC21OCCO1 (stereo unspecified),208
13,CCCC1(O)CCC2C3CCC4CC(OC(C)=O)CCC4(C)C3CCC21C (stereo unspecified),121
14,CC1(C(=O)OC2OC(CO)C(O)C(O)C2O)CCCC2(C)C3CCC4CC3(CCC12)CC4(CO)OC1OC(CO)C(O)C(O)C1O (stereo unspecified),198
15,CC(=O)OCC1OC(C(N)=O)C(OC(C)=O)C(OC(C)=O)C1OC(C)=O (stereo unspecified),129
16,CC(=O)OCC1OC(OC2C(COC(C)=O)OC(OC(C)=O)C(OC(C)=O)C2OC(C)=O)C(OC(C)=O)C(OC(C)=O)C1OC(C)=O (stereo unspecified),138
17,CCCOC(=O)C1=C(C)NC(C)=C(C(=O)OCCC)C1c1cccc(OC)c1O,167
18,COc1cc(O)c2c(=O)c(OC3OC(CO)C(O)C(O)C3OC3OC(C)C(O)C(O)C3O)c(-c3ccc(O)c(O)c3)oc2c1 (stereo unspecified),187
19,O=C1C=CC(=O)C2CC3=C(CC4=C(C3)CC3C(=O)C=CC(=O)C3C4)CC12 (stereo unspecified),338
20,CCCCC(C)CC(O)C=CC1C(O)CC(=O)C1CCCCC=CC(=O)O (stereo unspecified),97
21,CC12CCC3C(C1CCC2=O)C1(CC2CC(=O)CCC23C)OCCO1 (stereo unspecified),207
22,N=C1c2ccccc2C(=O)N1c1n[nH]c2ncccc12,254
23,CC(=O)Nc1ccc(C2=NN(c3ccccc3)C(=O)C2)cc1,210
24,Cc1ccccc1C1(C#N)Cc2ccccc2C(=O)O1 (stereo unspecified),122

row,SMILES,melting point [°C]
1,CC1(C)OC(=O)C(=Cc2ccc(-c3ccccc3)o2)C(=O)O1,143
2,O=C1OC(c2ccccc2)=N/C1=C/c1ccc(-c2cccc([N+](=O)[O-])c2)o1,145
3,CC1(C)C(=O)OC2=C(CC3C4CC=C5CC(O)CCC5(C)C4CCC23C)C1c1ccccc1 (stereo unspecified),233
4,CCC1C2=C(OC(=O)C1(C)C)c1ccc(OC)cc1CC2 (stereo unspecified),143
5,O=C1OCCOC(=O)C2CCCCC2C(=O)OCCOC(=O)C2CCCCC12 (stereo unspecified),140
6,O=S(=O)(NS(=O)(=O)C(F)(F)F)C(F)(F)F,51.5
7,O=S(=O)(O)CCCNC(CO)(CO)CO,230
8,Cc1ccc(Sc2ccccc2NS(=O)(=O)c2ccc(C)cc2)cc1,83.8
9,O=[N+]([O-])c1cc([N+](=O)[O-])c(C(Br)=Cc2ccccc2)cc1/C=C\c1ccccc1,175
10,CC1(C)c2ccccc2N(Cc2ccccc2)C12C=Cc1cc([N+](=O)[O-])ccc1O2 (stereo unspecified),159
11,CC(=O)C(=Cc1ccc(-c2cccc([N+](=O)[O-])c2)o1)C(C)=O,154
12,CC1(C)CC(=O)C(=NNc2ccccc2[N+](=O)[O-])C(=O)C1,140
13,OC[C@H]1O[C@@H]2O[C@H]3[C@H](O)[C@@H](O)[C@@H](O[C@H]4[C@H](O)[C@@H](O)[C@@H](O[C@H]5[C@H](O)[C@@H](O)[C@@H](O[C@H]6[C@H](O)[C@@H](O)[C@@H](O[C@H]7[C@H](O)[C@@H](O)[C@@H](O[C@H]8[C@H](O)[C@@H](O)[C@@H](O[C@H]1[C@H](O)[C@H]2O)O[C@@H]8CO)O[C@@H]7CO)O[C@@H]6CO)O[C@@H]5CO)O[C@@H]4CO)O[C@@H]3CO,290
14,Oc1ccccc1/C=N/n1c(S)nnc1C(F)(F)F,156
15,CC1(C)OC(CP(c2ccccc2)c2ccccc2)C(CP(c2ccccc2)c2ccccc2)O1 (stereo unspecified),87
16,COC(=O)C1C(c2ccccc2)C(C#N)=C(C(SC)SC)C1(O)c1ccccc1 (stereo unspecified),165
17,CCOC(=O)c1c(SC)n[nH]c1N,143
18,Cc1c(CSC2OCC(O)C(O)C2O)c(C)c(CSC2OCC(O)C(O)C2O)c(C)c1CSC1OCC(O)C(O)C1O (stereo unspecified),209
19,O=C(O)CCN1C(=O)COc2ccc(Cl)cc21,148
20,c1ccc(C/C(=N\Nc2ccccc2)c2ccc3ccccc3c2)cc1,166
21,Clc1ncnc2sc3c(c12)CCC3,105
22,CCOC(=O)c1sc2sc(C#N)c(N)c2c1N,262
23,COc1ccc(-c2csc(C(C#N)=Cc3ccco3)n2)cc1,116
24,NC(N)=Nc1nc(CSCCC(N)=N[S+2](N)([O-])[O-])cs1,163
